Data taken from patent US20050049245A1, “Heteroaryl-ethanolamine derivatives as antiviral agents” (priority 2002, published 2005).

Columns and labels:
[1] = target: T1, HCMV polymerase (Human cytomegalovirus, UniProt P08546); experiment: HCMV polymerase scintillation proximity assay (SPA); type: biochemical; details: HCMV polymerase, SPA; read-out: Polymerase IC50 HCMV
T1 construct: made in house; host or cells: recombinant baculovirus-infected SF-9 cells
Procedure: The HCMV polymerase assay is performed using a scintillation proximity assay (SPA) as described in several references, such as N. D. Cook, et al., Pharmaceutical Manufacturing International, pages 49-53 (1992); KY Takeuchi, Laboratory Practice, September issue (1992); U.S. Pat. No. 4,568,649 (1986); which are incorporated by reference herein. Reactions are performed in 96-well plates. The assay is conducted in 100 yl volume with 5.4 mM HEPES (pH 7.5), 11.7 mM KCl, 4.5 mM MgCl2, 0.36 mg/ml BSA, and 90 nM ^3H-dTTP. Assays are run with and without CHAPS, (3-[(3-Cholamidopropyl)-dimethylammonio]-1-propane-sulfonate) at a final concentration of 2 mM. HCMV polymerase is diluted in enzyme dilution buffer containing 50% glycerol, 250 mM NaCl, 10 mM HEPES (pH 7.5), 100 μg/ml BSA, and 0.01% sodium azide. The HCMV polymerase, which is expressed in recombinant baculovirus-infected SF-9 cells and purified according to literature procedures, is added at 10% (or 10 μl) of the final reaction volume, i.e., 100 μl. Compounds are diluted in 50% DMSO and 10 μl are added to each well. Control wells contain an equivalent concentration of DMSO. Unless noted otherwise, reactions are initiated via the addition of 6 nM biotinylated poly(dA)-oligo(dT) template/primer to reaction mixtures containing the enzyme, substrate, and compounds of interest. Plates are incubated in a 25° C. or 37° C. H2O bath and terminated via the addition of 40 μl/reaction of 0.5 M EDTA (pH 8) per well. Reactions are terminated within the time-frame during which substrate incorporation is linear and varied depending upon the enzyme and conditions used, i.e., 30 min. for HCMV polymerase. Ten (10) μl of streptavidin-SPA beads (20 mg/ml in PBS/10% glycerol) are added following termination of the reaction. Plates are incubated 10 min. at 37° C., then equilibrated to room temperature, and counted on a Packard Topcount. Linear regressions are performed and IC50's are calculated using computer software.
A modified version of the above HCMV polymerase assay is performed as described above, but with the following changes: Compounds are diluted in 100% DMSO until final dilution into assay buffer. In the previous assay, compounds are diluted in 50% DMSO. 4.5 mM Dithiothreitol (DTT) is added to the polymerase buffer.
All results are listed as Polymerase IC50 ([…]) values. In Table 1, the term “n.d.” refers to activity data not determined.

[2] = target: HSV polymerase (Human herpesvirus 1, UniProt P04293); experiment: HSV polymerase assay (Table 1); type: biochemical; details: HSV polymerase; read-out: Polymerase IC50 HSV
HSV polymerase, sequence (P04293 whole entry): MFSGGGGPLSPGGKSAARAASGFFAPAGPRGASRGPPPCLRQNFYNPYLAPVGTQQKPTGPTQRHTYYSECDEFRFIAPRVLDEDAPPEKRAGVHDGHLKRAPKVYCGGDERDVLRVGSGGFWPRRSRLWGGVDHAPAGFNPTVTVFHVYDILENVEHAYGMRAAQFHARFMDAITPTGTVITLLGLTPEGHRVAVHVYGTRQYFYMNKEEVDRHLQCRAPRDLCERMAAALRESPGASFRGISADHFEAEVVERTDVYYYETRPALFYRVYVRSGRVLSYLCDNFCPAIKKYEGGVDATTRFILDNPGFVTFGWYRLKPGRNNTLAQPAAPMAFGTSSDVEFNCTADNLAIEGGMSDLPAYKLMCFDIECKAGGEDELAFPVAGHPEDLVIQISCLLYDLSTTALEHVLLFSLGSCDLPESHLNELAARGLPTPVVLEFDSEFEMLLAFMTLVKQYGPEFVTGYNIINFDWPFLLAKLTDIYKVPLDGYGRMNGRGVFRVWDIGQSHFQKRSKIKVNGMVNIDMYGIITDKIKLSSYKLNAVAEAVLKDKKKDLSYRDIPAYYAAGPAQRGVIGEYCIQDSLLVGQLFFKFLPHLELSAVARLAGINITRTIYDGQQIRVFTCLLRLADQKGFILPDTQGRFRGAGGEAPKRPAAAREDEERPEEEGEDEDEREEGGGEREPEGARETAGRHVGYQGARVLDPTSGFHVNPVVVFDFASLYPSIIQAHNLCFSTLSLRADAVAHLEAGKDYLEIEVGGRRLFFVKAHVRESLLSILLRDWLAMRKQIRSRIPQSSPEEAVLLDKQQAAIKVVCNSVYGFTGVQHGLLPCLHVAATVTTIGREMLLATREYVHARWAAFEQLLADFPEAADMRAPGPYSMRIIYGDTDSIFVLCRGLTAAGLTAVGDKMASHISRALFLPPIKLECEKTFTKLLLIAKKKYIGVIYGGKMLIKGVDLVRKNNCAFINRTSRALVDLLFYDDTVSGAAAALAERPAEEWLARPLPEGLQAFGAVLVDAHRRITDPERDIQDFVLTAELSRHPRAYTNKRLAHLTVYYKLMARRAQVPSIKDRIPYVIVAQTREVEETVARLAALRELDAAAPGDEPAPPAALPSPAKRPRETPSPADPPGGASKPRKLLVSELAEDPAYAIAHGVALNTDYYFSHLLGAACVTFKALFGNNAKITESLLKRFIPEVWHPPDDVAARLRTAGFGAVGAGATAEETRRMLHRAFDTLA

[3] = target: VZV polymerase (Varicella-zoster virus, UniProt P09252); experiment: VZV polymerase assay (Table 1); type: biochemical; details: VZV polymerase; read-out: Polymerase IC50 VZV
VZV polymerase, sequence (P09252 whole entry): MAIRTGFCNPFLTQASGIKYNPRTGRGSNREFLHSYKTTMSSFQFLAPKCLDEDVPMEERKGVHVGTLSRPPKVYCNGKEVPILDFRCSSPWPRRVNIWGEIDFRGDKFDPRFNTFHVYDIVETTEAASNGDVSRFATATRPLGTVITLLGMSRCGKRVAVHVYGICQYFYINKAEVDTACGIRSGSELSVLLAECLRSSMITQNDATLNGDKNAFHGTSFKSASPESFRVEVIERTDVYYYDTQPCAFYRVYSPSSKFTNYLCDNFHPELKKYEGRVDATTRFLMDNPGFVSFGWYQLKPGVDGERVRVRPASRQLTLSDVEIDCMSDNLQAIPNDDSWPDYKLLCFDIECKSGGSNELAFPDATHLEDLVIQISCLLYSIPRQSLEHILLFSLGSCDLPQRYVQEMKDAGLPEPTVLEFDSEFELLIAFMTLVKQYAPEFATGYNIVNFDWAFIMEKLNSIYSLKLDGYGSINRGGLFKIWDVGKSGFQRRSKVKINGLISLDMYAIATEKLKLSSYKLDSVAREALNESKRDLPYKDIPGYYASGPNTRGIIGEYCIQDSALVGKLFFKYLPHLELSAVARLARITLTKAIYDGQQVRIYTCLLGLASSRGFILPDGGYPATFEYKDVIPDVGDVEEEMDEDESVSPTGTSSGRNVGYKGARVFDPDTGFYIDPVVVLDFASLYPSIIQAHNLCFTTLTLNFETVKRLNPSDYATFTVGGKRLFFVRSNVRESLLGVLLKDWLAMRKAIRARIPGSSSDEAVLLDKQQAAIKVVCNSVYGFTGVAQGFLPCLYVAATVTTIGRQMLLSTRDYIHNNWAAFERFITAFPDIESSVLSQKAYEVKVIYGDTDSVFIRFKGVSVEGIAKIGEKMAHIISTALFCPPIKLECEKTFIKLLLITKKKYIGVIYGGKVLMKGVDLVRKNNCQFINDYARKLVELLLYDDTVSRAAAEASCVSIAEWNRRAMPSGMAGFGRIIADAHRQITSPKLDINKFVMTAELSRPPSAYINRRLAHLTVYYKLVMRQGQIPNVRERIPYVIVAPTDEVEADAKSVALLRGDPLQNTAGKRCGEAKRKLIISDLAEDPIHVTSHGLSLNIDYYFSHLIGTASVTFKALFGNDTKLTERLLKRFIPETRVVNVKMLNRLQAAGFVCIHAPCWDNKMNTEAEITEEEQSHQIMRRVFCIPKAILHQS

T1 sequence (P08546 whole entry): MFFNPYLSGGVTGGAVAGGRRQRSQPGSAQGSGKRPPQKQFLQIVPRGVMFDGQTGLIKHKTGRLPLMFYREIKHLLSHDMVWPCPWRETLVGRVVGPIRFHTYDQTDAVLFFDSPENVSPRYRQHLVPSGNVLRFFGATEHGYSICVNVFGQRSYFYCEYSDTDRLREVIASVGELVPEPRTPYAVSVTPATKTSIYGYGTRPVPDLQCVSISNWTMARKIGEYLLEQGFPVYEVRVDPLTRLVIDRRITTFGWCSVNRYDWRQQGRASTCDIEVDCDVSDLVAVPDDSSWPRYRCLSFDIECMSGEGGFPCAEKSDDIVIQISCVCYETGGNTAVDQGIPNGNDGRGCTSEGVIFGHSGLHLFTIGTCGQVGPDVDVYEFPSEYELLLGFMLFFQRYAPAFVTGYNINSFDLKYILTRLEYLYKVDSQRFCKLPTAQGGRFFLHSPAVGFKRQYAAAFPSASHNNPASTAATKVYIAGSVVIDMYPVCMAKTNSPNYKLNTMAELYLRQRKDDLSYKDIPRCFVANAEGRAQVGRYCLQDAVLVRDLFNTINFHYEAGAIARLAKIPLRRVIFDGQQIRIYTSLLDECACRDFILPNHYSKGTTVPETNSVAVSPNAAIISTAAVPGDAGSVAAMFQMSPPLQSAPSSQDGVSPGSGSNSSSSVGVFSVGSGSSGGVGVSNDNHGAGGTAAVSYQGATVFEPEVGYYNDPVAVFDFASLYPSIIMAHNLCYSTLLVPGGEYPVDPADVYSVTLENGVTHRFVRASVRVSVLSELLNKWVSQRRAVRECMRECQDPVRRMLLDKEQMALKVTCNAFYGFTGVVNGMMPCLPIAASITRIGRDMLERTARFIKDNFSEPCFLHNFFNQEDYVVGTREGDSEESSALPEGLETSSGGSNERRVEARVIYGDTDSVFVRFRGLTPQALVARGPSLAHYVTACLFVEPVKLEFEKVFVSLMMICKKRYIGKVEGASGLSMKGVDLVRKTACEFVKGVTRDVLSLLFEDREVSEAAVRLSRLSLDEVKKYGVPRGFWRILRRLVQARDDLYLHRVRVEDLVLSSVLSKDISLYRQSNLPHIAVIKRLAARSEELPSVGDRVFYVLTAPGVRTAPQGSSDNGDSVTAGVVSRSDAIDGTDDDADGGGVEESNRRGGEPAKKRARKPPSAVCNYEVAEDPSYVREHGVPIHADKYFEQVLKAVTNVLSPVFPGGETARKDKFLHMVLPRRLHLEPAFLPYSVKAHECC

Compound `CN(Cc1cc2c(=O)c(C(=O)NCc3ccc(Cl)cc3)cn(C)c2s1)CC(O)c1ccoc1` (racemic) [Example 4, rac-N-(4-Chlorobenzyl)-2-(((2-(3-furyl)-2-hydroxyethyl)(methyl)amino)methyl)-7-methyl-4-oxo-4,7-dihydrothieno[2,3-b]pyridine-5-carboxamide] has an IC50 [1] of 250 nM, an IC50 [2] of 840 nM and an IC50 [3] of 390 nM. For the same compound, the melting point was 151 to 153 °C.
For `Cc1ccc(C(O)CN(C)Cc2cc3c(=O)c(C(=O)NCc4ccc(Cl)cc4)cn(C)c3s2)o1` (racemic) [Example 3, rac-N-(4-Chlorobenzyl)-2-(((2-hydroxy-2-(5-methyl-2-furyl)ethyl)(methyl)amino)methyl)-7-methyl-4-oxo-4,7-dihydrothieno[2,3-b]pyridine-5-carboxamide], the IC50 [1] was 70 nM, the IC50 [2] was 260 nM and the IC50 [3] was 130 nM. The melting point was 137 to 140 °C.
`CN(Cc1cc2c(=O)c(C(=O)NCc3ccc(Cl)cc3)cn(C)c2s1)CC(O)c1cc2ccccc2n1C` (racemic) [Example 14, rac-N-(4-Chlorobenzyl)-2-(((2-hydroxy-2-(1-methyl-1H-indol-2-yl)ethyl)(methyl)-amino)methyl)-7-methyl-4-oxo-4,7-dihydrothieno[2,3-b]pyridine-5-carboxamide] showed an IC50 [1] of 100 nM, an IC50 [2] of 530 nM and an IC50 [3] of 120 nM. For the same compound, the melting point was 128 to 132 °C (dec.).
In the case of `CN(Cc1cc2c(=O)c(C(=O)NCc3ccc(Cl)cc3)cn(C)c2s1)CC(O)c1ccn[nH]1` (racemic) [Example 18, rac-N-(4-Chlorobenzyl)-2-(((2-hydroxy-2-(1H-pyrazol-5-yl)ethyl)(methyl)amino)-methyl)-7-methyl-4-oxo-4,7-dihydrothieno[2,3-b]pyridine-5-carboxamide], the IC50 [1] is reported as 350 nM, the IC50 [2] is reported as 910 nM and the IC50 [3] is reported as 370 nM. The melting point was 177.5 to 178.6 °C.
`CN(Cc1cc2c(=O)c(C(=O)NCc3ccc(Cl)cc3)cn(C)c2s1)CC(O)c1ccc[nH]1` (racemic) [Example 7, rac-N-(4-Chlorobenzyl)-2-(((2-hydroxy-2-(1H-pyrrol-2-yl)ethyl)(methyl)amino)-methyl)-7-methyl-4-oxo-4,7-dihydrothieno[2,3-b]pyridine-5-carboxamide] gave an IC50 [1] of 300 nM, an IC50 [2] of 980 nM and an IC50 [3] of 330 nM. For the same compound, the melting point was 169 to 172 °C (dec.).
Compound `CN(Cc1cc2c(=O)c(C(=O)NCc3ccc(Cl)cc3)cn(C)c2s1)CC(O)c1ccc(-c2ccccc2)o1` (racemic) [Example 31, rac-N-(4-Chlorobenzyl)-2-(((2-(5-phenyl-2-furyl)-2-hydroxyethyl)(methyl)-amino)methyl)-7-methyl-4-oxo-4,7-dihydrothieno[2,3-b]pyridine-5-carboxamide] has an IC50 [1] of 70 nM, an IC50 [2] of 120 nM and an IC50 [3] of 60 nM. The melting point was 177 to 178 °C.
`CN(Cc1cc2c(=O)c(C(=O)NCc3ccc(Cl)cc3)cn(C)c2s1)CC(O)c1cc2ccccc2o1` (racemic) [Example 5, rac-2-(((2-(1-Benzofuran-2-yl)-2-hydroxyethyl)(methyl)amino)methyl)-N-(4-chlorobenzyl)-7-methyl-4-oxo-4,7-dihydrothieno[2,3-b]pyridine-5-carboxamide] gave an IC50 [1] of 10 nM, an IC50 [2] of 30 nM and an IC50 [3] of 10 nM. It also gave a melting point of 212 to 214 °C.
